{
  "source": "patent US20230149419A1",
  "about": "“COMPOSITION FOR PREVENTING OR TREATING NEUROINFLAMMATORY DISEASES, COMPRISING CHLORPROMAZINE” (GliaCellTech Inc., priority 2020, published 2023)",
  "key": {"[1]": {"tested_on": "Psen2 mutation mouse model of Alzheimer's disease", "assay": "Y-maze test, Psen2 mutation mouse model of Alzheimer's disease", "format": "in vivo", "conditions": "for Y-maze Alternation % / Y-maze No. of Arm entry: chlorpromazine 0.25 mg/kg i.p., mean±SEM", "protocol": "(§1) Specifically, the Y-maze was used to evaluate spatial working memory. The assay was conducted in white plastic arms of a Y-shaped maze. A mouse was placed in the center of the maze and was allowed to freely explore the arms for 5 min. The experiment was recorded with EthoVision software (Noldus). The number of arm entries and the number of triads were analyzed to calculate the percentage of alternation by dividing the number of three consecutive arm entries (triads) by the number of possible triads×100 (total arm entries−2).\n(§2) An examination was made to see whether LPS-induced inflammation causes memory decline and chlorpromazine reverses the LPS-induced inflammation in disease animal models. To analyze memory and behavior performance, the Y-maze test as in Example 4 was conducted."}, "[2]": {"tested_on": "primary microglia from wild-type mice", "assay": "LPS-induced cytokine mRNA expression in primary microglia (qRT-PCR), wild-type", "format": "cell-based, mouse", "protocol": "(§3) Primary microglia were obtained from wild-type mice and Psen2^N141I/+ mice with Alzheimer's disease. Specifically, brains were excised from neonatal mice 1 to 3 days old and cells were obtained therefrom. The cells were cultured in Dulbecco's modified Eagle's medium (DMEM, Corning) supplemented with 10% heat-inactivated fetal bovine serum (HI-FBS, Hyclone) and 1% penicillin-streptomycin (Hyclone). Primary microglia were isolated in vitro by tapping after 12 days of culturing. Purity of primary microglia was estimated by immunostaining with an antibody against Iba-1, which is a microglial marker.\n(§4) In this regard, the primary microglia were preincubated with or without 0.5 μM chlorpromazine for 30 min before LPS treatment. Anti-inflammatory effects were compared and analyzed between the test groups.\nThe culture of each group was measured for microglial mRNA expression levels of the target cytokines by qRT-PCR (quantitative RT-PCR). Specifically, RNA was isolated from the microglia and cDNA was synthesized using an ImProm-II Reverse Transcriptase kit (Promega). PCR primers were commercially available (Cosmo Genetech). qRT-PCR was performed using Taq Polymerase (Invitrogen) and mouse cDNA-specific primers listed in Table 6, below. In addition, TOPreal™ qPCR 2×PreMIX (SYBR Green with low ROX) (Enzynomics) was used. Amplification (50 cycles) was performed for 50 cycles with all primers in a CFX96 Real-Time System (Bio-Rad). Actb was used as the reference genes for normalization."}, "wild-type mice [3]": {"tested_on": "wild-type mice", "assay": "Serum cytokine levels after low-concentration LPS injection, wild-type mice", "procedure": "To investigate neuroinflammation at various concentrations of LPS, blood was extracted from cheek veins in the wild-type mice in group 2 and the mouse model of Alzheimer's disease in group 4 20 hours after the injection of LPS. The sera obtained by centrifugation were quantitatively analyzed for IL-6, TNFα, CCL2, CXCL1, and CCL5 by using ELISA kit (R&D Systems) according to the manufacturer's instruction. In addition, the same procedure was conducted for the wild-type mice without LPS injection of group 1 and the Psen2^N141I mutation mouse model of Alzheimer's disease of group 3 to obtain sera which were then analyzed for the proteins by using the ELISA kit according to the manufacturer's instruction.\nThe wild-type mice and the Psen2 mutation mouse model of Alzheimer's disease obtained in Example 1 were intraperitoneally injected with chlorpromazine (0.25 mg/body weight kg) at 14:00 and then with such a low concentration of LPS (0.35 μg/kg) as to be ineffective for inflammation in wild-type mice at 18:00 (Zeitgeber time light-on at 11:00 and 07:00). After 20 hours, the mice were monitored for inflammatory responses and memory behavior. The concentration of chlorpromazine (0.25 mg/body weight kg) used in this assay is tens- to hundreds-fold lower than those conventionally used as an antipsychotic (25 mg/injection, 3 times/day).\nAfter the experiment conducted as in the scheme of FIG. 11A, the wild-type and the Psen2^N141I/+ Alzheimer's disease mice, both intraperitoneally injected with LPS, were analyzed for inflammatory response according to chlorpromazine treatment as measured for serum levels of the circadian clock-controlled cytokines (IL-6, CXCL1, CCL2, and CCL5) by ELISA as in Example 2."}, "[4]": {"tested_on": "primary microglia from Psen2 mutation mouse model of Alzheimer's disease", "assay": "IL-1β secretion after LPS and inflammasome activation (nigericin/ATP), Psen2 mutation microglia", "format": "cell-based", "conditions": "for IL-1β secreted: chlorpromazine 30 min, LPS 1 μg/mL 3 h", "protocol": "as §3\nIL-1β is a cytokine released from an activated inflammasome complex in microglia. For secretion of the cytokine, additional treatment with a drug for inducing activation of the inflammasome complex is necessary following LPS-induced inflammation. […] Application of the test groups thus obtained could divide groups 5 to 8 of Example 5-2 into 10 subgroups according to treatment with nigericin and ATP."}, "[5]": {"tested_on": "primary microglia from Psen2 mutation (KI/+) mouse model of Alzheimer's disease", "assay": "fAβ42-induced cytokine secretion in primary microglia (ELISA), Psen2 mutation", "format": "cell-based", "protocol": "as §3\nSpecifically, FITC-conjugated amyloid beta 1-42 was prepared according to the follow reference (Cho, M.-H. et al. “Autophagy in microglia degrades extracellular β-amyloid fibrils and regulates the NLRP3 inflammasome.” Autophagy 10, 1761-1775 (2014)).\nThe primary cultures of microglia prepared in Example 5-1 from the Psen2 mutation (KI/+) mouse model of Alzheimer's disease and the wild-type (WT) mice were directly treated with 4 μM of the fibrilized amyloid beta 1-42 (fAβ42), followed by incubation with or without 0.5 μM chlorpromazine."}, "[6]": {"tested_on": "primary microglia from wild-type mice", "assay": "LPS-induced inflammatory cytokine secretion in primary microglia (ELISA), wild-type", "format": "cell-based, mouse", "protocol": "as §3, §4"}, "[7]": {"tested_on": "Nr1d1 mRNA in primary microglia from Psen2 mouse model of Alzheimer's disease", "assay": "Nr1d1 mRNA expression in primary microglia (qRT-PCR), Psen2 mutation", "format": "cell-based", "protocol": "Effects were analyzed in the experimental group not treated with chlorpromazine on the obtained microglia and the experimental group treated with chlorpromazine at a dose of 0.5 μM."}, "wild-type mice [8]": {"tested_on": "wild-type mice", "assay": "Y-maze test, wild-type mice", "format": "in vivo, mouse", "conditions": "for Y-maze Alternation % / Y-maze No. of Arm entry: chlorpromazine 0.25 mg/kg i.p., mean±SEM", "protocol": "as §1, §2"}, "[9]": {"tested_on": "elderly with schizophrenia", "conditions": "taken for a long time at the current market dose; cited from earlier work"}, "[10]": {"conditions": "Alzheimer's disease model/LPS(+)/CPZ(+) (Group 48), LPS 0.35 μg/kg"}, "[11]": {"conditions": "Alzheimer's disease model/LPS(−)/CPZ(+) (Group 46)"}, "[12]": {"conditions": "WT microglia, LPS 1 μg/mL 12 h, 0.5 μM chlorpromazine (Group 6)"}, "[13]": {"conditions": "chlorpromazine 0.25 mg/kg i.p., LPS 0.35 μg/kg i.p., 20 h after LPS (Group 38)"}, "[14]": {"conditions": "KI/+ microglia, 4 μM fAβ42, 0.5 μM chlorpromazine (Group 26)"}, "[15]": {"conditions": "WT microglia, LPS 1 μg/mL 12 h, preincubated 0.5 μM chlorpromazine 30 min (Group 6)"}, "[16]": {"conditions": "wild-type/LPS(+)/CPZ(+) (Group 44), LPS 0.35 μg/kg"}, "[17]": {"conditions": "wild-type/LPS(−)/CPZ(+) (Group 42)"}},
  "data": [
    {"smiles": "CN(C)CCCN1c2ccccc2Sc2ccc(Cl)cc21", "note": "[CPZ, 3-(2-chloro-10H-phenothiazin-10-yl)-N,N-dimethyl-propan-1-amine]", "values": [
      {"measurement": "Y-maze Alternation %", "setting": "[1]; [10]", "value": "72.000 ± 3.964", "unit": "%"},
      {"measurement": "Y-maze No. of Arm entry", "setting": "[1]; [10]", "value": "16.500 ± 1.368"},
      {"measurement": "Y-maze Alternation %", "setting": "[1]; [11]", "value": "77.714 ± 4.699", "unit": "%"},
      {"measurement": "Y-maze No. of Arm entry", "setting": "[1]; [11]", "value": "18.286 ± 1.063"},
      {"measurement": "LPS-induced memory decline, arm alternation in Y-maze (in words)", "setting": "[1]; LPS-injected Psen2 mutation mouse model, group 48", "value": "sufficient recovery"},
      {"measurement": "memory performance, arm alternation in Y-maze (in words)", "setting": "[1]; Psen2 mutation mice, chlorpromazine alone vs no drug treatment", "value": "no significant different memory performance"},
      {"measurement": "Inflammatory cytokine expression Ccl2 (mRNA)", "setting": "[2]; [12]", "value": 0.907, "unit": "fold"},
      {"measurement": "Inflammatory cytokine expression Ccl5 (mRNA)", "setting": "[2]; [12]", "value": 1.113, "unit": "fold"},
      {"measurement": "Inflammatory cytokine expression Cxcl1 (mRNA)", "setting": "[2]; [12]", "value": 0.968, "unit": "fold"},
      {"measurement": "Inflammatory cytokine expression Tnf (mRNA)", "setting": "[2]; [12]", "value": 1.066, "unit": "fold"},
      {"measurement": "Inflammatory cytokine expression Il-6 (mRNA)", "setting": "[2]; WT microglia, LPS 1 μg/mL 12 h, 0.5 μM chlorpromazine (Group 6), normalized to Actb", "value": 0.947, "unit": "fold"},
      {"measurement": "mRNA levels of circadian clock-controlled cytokines (in words)", "setting": "[2]; wild-type microglia, groups 5 and 6, LPS", "value": "not affected"},
      {"measurement": "Inflammatory cytokine secreted IL-6 (serum)", "setting": "wild-type mice [3]; chlorpromazine 0.25 mg/kg i.p. 4 h before LPS 0.35 μg/kg i.p., 20 h after LPS (Group 38)", "value": 68.214, "unit": "pg/mL"},
      {"measurement": "Inflammatory cytokine secreted CCL2 (serum)", "setting": "wild-type mice [3]; [13]", "value": 117.032, "unit": "pg/mL"},
      {"measurement": "Inflammatory cytokine secreted CCL5 (serum)", "setting": "wild-type mice [3]; [13]", "value": 80.808, "unit": "pg/mL"},
      {"measurement": "Inflammatory cytokine secreted CXCL1 (serum)", "setting": "wild-type mice [3]; [13]", "value": 172.313, "unit": "pg/mL"},
      {"measurement": "Inflammatory cytokine secreted TNF-α (serum)", "setting": "wild-type mice [3]; [13]", "value": 62.634, "unit": "pg/mL"},
      {"measurement": "production of the circadian clock-controlled cytokines in serum (in words)", "setting": "wild-type mice [3]; groups 37 and 38, LPS 0.35 μg/kg", "value": "did not affect"},
      {"measurement": "IL-1β secreted", "setting": "[4]; Psen2 mutation microglia (Group 20), Nig(+)/ATP(−), nigericin 10 μM 40 min", "value": 946.122, "unit": "pg/mL"},
      {"measurement": "IL-1β secreted", "setting": "[4]; Psen2 mutation microglia (Group 22), Nig(−)/ATP(+), ATP 5 mM 40 min", "value": 1186.118, "unit": "pg/mL"},
      {"measurement": "production of IL-1β (in words)", "setting": "[4]; across all the groups (WT and Psen2 mutation microglia), LPS plus nigericin or ATP", "value": "no impacts"},
      {"measurement": "Secreted inflammatory cytokine CCL2", "setting": "[5]; [14]", "value": 1645.882, "unit": "pg/mL"},
      {"measurement": "Secreted inflammatory cytokine CCL5", "setting": "[5]; [14]", "value": 1818.188, "unit": "pg/mL"},
      {"measurement": "Secreted inflammatory cytokine CXCL1", "setting": "[5]; [14]", "value": 1528.621, "unit": "pg/mL"},
      {"measurement": "Secreted inflammatory cytokine IL-6", "setting": "[5]; [14]", "value": 1336.446, "unit": "pg/mL"},
      {"measurement": "Secreted inflammatory cytokine TNF-α", "setting": "[5]; [14]", "value": 1352.738, "unit": "pg/mL"},
      {"measurement": "anti-inflammatory effect after fAβ42 (in words)", "setting": "[5]; microglia from Psen2 mutation mouse model (group 26), 0.5 μM chlorpromazine", "value": "exhibited an anti-inflammatory effect"},
      {"measurement": "levels of TNF-α after fAβ42 (in words)", "setting": "[5]; microglia from wild-type mice and Psen2 mutation model", "value": "no impacts"},
      {"measurement": "Inflammatory cytokine secreted CCL2", "setting": "[6]; [15]", "value": 948.716, "unit": "pg/mL"},
      {"measurement": "Inflammatory cytokine secreted CCL5", "setting": "[6]; [15]", "value": 948.716, "unit": "pg/mL"},
      {"measurement": "Inflammatory cytokine secreted CXCL1", "setting": "[6]; [15]", "value": 937.727, "unit": "pg/mL"},
      {"measurement": "Inflammatory cytokine secreted TNF-α", "setting": "[6]; [15]", "value": 1414.237, "unit": "pg/mL"},
      {"measurement": "Inflammatory cytokine secreted IL-6", "setting": "[6]; WT microglia, LPS 1 μg/mL 12 h, preincubated 0.5 μM chlorpromazine 30 min (Group 6), mean", "value": 2228.546, "unit": "pg/mL"},
      {"measurement": "protein levels of circadian clock-controlled cytokines (in words)", "setting": "[6]; wild-type microglia, groups 5 and 6, chlorpromazine 0.5 μM, LPS", "value": "not affected"},
      {"measurement": "Nr1d1 mRNA expression", "setting": "[7]; KI/+ microglia, no LPS, 0.5 μM chlorpromazine (Group 30), mean±SEM", "value": "0.976 ± 0.094", "unit": "fold"},
      {"measurement": "Nr1d1 mRNA expression level (in words)", "setting": "[7]; Psen2 mutation microglia, group 30, chlorpromazine 0.5 μM", "value": "restored to the level in the wild-type group"},
      {"measurement": "memory performance, arm alternation in Y-maze (in words)", "setting": "wild-type mice [8]; wild-type mice, chlorpromazine alone (group 42) or with LPS (group 44)", "value": "normal memory performance"},
      {"measurement": "Y-maze Alternation %", "setting": "wild-type mice [8]; [16]", "value": "64.333 ± 3.175", "unit": "%"},
      {"measurement": "Y-maze No. of Arm entry", "setting": "wild-type mice [8]; [16]", "value": "17.889 ± 1.136"},
      {"measurement": "Y-maze Alternation %", "setting": "wild-type mice [8]; [17]", "value": "66.667 ± 4.681", "unit": "%"},
      {"measurement": "Y-maze No. of Arm entry", "setting": "wild-type mice [8]; [17]", "value": "20.167 ± 1.537"},
      {"measurement": "side effect on mortality", "setting": "[9]", "value": "increasing the mortality rate"}
    ]}
  ]
}
